From patent publication US20260191192A1, “ANTIMICROBIAL COMPOSITIONS COMPRISING PELARGONIC ACID” (LANXESS Corporation, priority 2023, published 2026)

Columns and labels:
[1] = ZenBio Cupric Ion Chelating (CIC) Assay; type: physicochemical; settings: calculated from a EDTA calibration curve, Pelargonic Acid at 775 μM
Experimental: The chelation property of the pelargonic acid was measured by using the ZenBio Cupric Ion Chelating (CIC) Assay (Cat #AOX-16). The assay measured the capacity of the pelargonic acid to chelate free cupric ions in solution, thereby inhibiting Cu(II) binding to pyrocatechol violet (PV) for generating a highly colored complex. The absorbance of the Cupric-PV complex was measured at a wavelength of 632 nm. The cupric ion chelating activity was determined as the percent of total PV over the Cu(II) binding. Ethylenediaminetetraacetic acid (EDTA), a well-known chelating agent, was used as a positive control. A series of EDTA with 7 different concentrations from 0 to 1000 μM were prepared and their corresponding absorbance measured and used as the calibration curve (Cupric ion chelating (%) vs. EDTA concentration). Percent cupric ion chelating was determined following the following calculations and Equation 1. The background absorbance value by averaging the absorbance values of the three background wells (no CuSO4 or sample). The average background absorbance was then subtracted from all the sample absorbance values. The maximal absorbance value (Absmax) was determined by averaging the absorbance values of the three wells containing CuSO4, PV and assay buffer. Abstest in Equation 1 is the absorbance of the test sample.
The calibration curve (Cupric ion chelating (%) vs. EDTA concentration) was fit by using a polynomial curve after log 10 transforming the concentrations (R2>0.98).

[2] = test system: mixed bacterial inoculum (Table 6); assay: Challenge test (preservative efficacy), mixed bacterial inoculum, full pool (Table 6); type: cell-based
Experimental: (§1) The preservative activity in representative rinse-off and leave-on formulations was evaluated using a modification of the Personal Care Products Council (PCPC—formerly the Cosmetic, Toiletry and Fragrance Association) protocol (Machtiger, et al. 2001. Determination of the Efficacy of Preservation of Non-Eye Area Water Miscible Cosmetic and Toiletry Formulations: Collaborative Study. J of AOAC International. 84:1, 101-109).
(§2) This evaluation was conducted using a four week, two or three-cycle (i.e., two-cycle for personal care and three-cycle for home care applications) microbial preservative efficacy test (i.e., challenge test) at 25° C. to determine the preservative efficacy of each treatment. Phenoxyethanol, benzyl alcohol and pelargonic acid were tested alone and in various combinations. The pelargonic acid used in the testing was purchased from Sigma-Aldrich. Combinations of phenoxyethanol or benzyl alcohol with benchmark multifunctional booster compounds were also tested for comparison. The preservative and booster ingredients were dosed and mixed thoroughly at room temperature into various formulations, specifically different personal care formulations including a lotion (leave-on, Table 1), a micellar water (rinse-off, Table 2), and a body wash formulation (rinse-off, Table 3) and different home care formulations including a manual dishwashing formulation (Table 4) and a liquid laundry detergent formulation (Table 5). […] Carbomers are a commonly used synthetic rheological modifier in personal care products. The formulation below was made by heating the aqueous (A) and oil (B) phases separately to 75-80° C. The oil phase was then poured into the aqueous phase and mixed by a homogenizer at approximately 45° C. The formed oil-in-water emulsion was cooled to room temperature. Triethanolamine and/or diluted sodium hydroxide was used to adjust the final pH to 6.3 or 6.5 (as indicated in the examples below).
(§3) After dosing, the samples were divided into two separate five gram aliquots. One aliquot was inoculated with 50 μl of a diluted bacterial pool, and the second aliquot was inoculated with 50 μl of a diluted fungal pool as described below. Unpreserved product samples were included as a growth control.
(§4) For personal care products, a mixed bacterial inoculum was prepared using 24-hour cultures of the test bacteria (Table 6) grown in trypticase soy broth (TSB). For home care products, a mixed bacterial inoculum was prepared using 24-hour cultures of the test bacteria either from Table 6 (full pool) or Table 7 (simplified pool) grown in trypticase soy broth (TSB). Details are disclosed in the home care examples below. Equal volumes of the bacterial test strains were combined and diluted one to ten in phosphate buffer to obtain an inoculum of approximately 5×10^7 to 5×10^8 colony forming units per ml (cfu/ml). The test samples were inoculated with 1% of the mixed bacterial inoculum. For both personal care and home care products, a mixed fungal inoculum was prepared using cell suspensions of the yeast Candida albicans ATCC #10231 and the mold Aspergillus brasiliensis ATCC #16404 in phosphate buffer. Equal volumes of the fungal test strains were combined and diluted one to ten with phosphate buffer to obtain an inoculum of approximately 5×10^6 to 5×10^7 cfu/ml. The test samples were inoculated with 1% of the mixed fungal inoculum.
(§5) For personal care products, the samples were subjected to two microbial challenges at time zero and inoculated a second time after seven days. For home care products, the samples were subjected to three microbial challenges at time zero and inoculated a second and third time after seven and fourteen days, respectively. The number of microorganisms added to each sample was determined by a standard Most Probable Number (MPN) determination in Trypticase Soy Broth (TSB) for bacteria and Potato Dextrose Broth (PDB) for fungi. Samples were incubated at 25° C. for the test duration of four weeks.

[3] = test system: bacteria (Table 6 pool) and fungi; assay: Challenge test, overall result (full bacteria pool and fungi); type: cell-based
Experimental: as §1, §2, §3, §4, §5

[4] = test system: mixed bacterial inoculum for home care (Table 7); assay: Challenge test (preservative efficacy), mixed bacterial inoculum, simplified pool (Table 7); type: cell-based, Pseudomonas aeruginosa, Staphylococcus aureus
Experimental: as §1, §2, §3, §4, §5

[5] = test system: bacteria (Table 7 pool) and fungi; assay: Challenge test, overall result (simplified bacteria pool and fungi); type: cell-based
Experimental: as §1, §2, §3, §4, §5

[6] = test system: mixed fungal inoculum: Candida albicans ATCC #10231 and Aspergillus brasiliensis ATCC #16404; assay: Challenge test (preservative efficacy), mixed fungal inoculum; type: cell-based
Experimental: as §1, §2, §3, §4, §5

[7] = lotion with carbomer, pH 6.3, Example 1A, dosed 0.4 wt %
[8] = lotion with carbomer, pH 6.5, Example 1I, dosed 0.4 wt %
[9] = lotion with carbomer, pH 6.5, Example 1I, total dosing 0.8 wt %
[10] = liquid laundry detergent, pH 7.5, Example 1H, dosed 0.5 wt %
[11] = liquid laundry detergent, pH 7.5, Example 1H, dosed 1.0 wt %
[12] = micellar water, pH 6.0, Example 1B, dosed 0.3 wt %
[13] = micellar water, pH 6.0, Example 1C, dosed 0.3 wt %
[14] = liquid laundry detergent, pH 7.5, Example 1G, dosed 0.5 wt %
[15] = liquid laundry detergent, pH 7.5, Example 1G, dosed 1.0 wt %
[16] = manual dishwashing formulation, pH 5.5, Example 1F, dosed 0.5 wt %
[17] = manual dishwashing formulation, pH 5.5, Example 1F, dosed 1.0 wt %

OCCOc1ccccc1 [Phenoxyethanol (POE), 2-phenoxyethan-1-ol]
Calculated EDTA equivalent ([1]; listed as Phenoxyethanol): ~0 µM
Calculated EDTA equivalent ([1]; listed as phenoxyethanol): ~ 0 μM
Bacteria growth rating Result ([2]; liquid laundry detergent, pH 7.5, full bacteria pool, Example 1H, dosed 0.5 wt %): Fail (growth rating score caused by bacteria of 2 or more at days 21-28 of the testing period)
Bacteria growth rating Result ([2]; liquid laundry detergent, pH 7.5, full bacteria pool, Example 1H, dosed 1.0 wt %): Pass (growth rating score caused by bacteria of 1 or less at days 21-28 of the testing period)
Bacteria growth rating Result [2, 7]: Fail (growth rating score caused by bacteria of 2 or more at days 21-28 of the testing period)
Bacteria growth rating Result ([2]; lotion with carbomer, pH 6.3, Example 1D, dosed 0.4 wt %): Fail (growth rating score caused by bacteria of 2 or more at days 21-28 of the testing period)
Bacteria growth rating Result ([2]; lotion with carbomer, pH 6.3, Example 1D, dosed 0.8 wt %): Pass (growth rating score caused by bacteria of 1 or less at days 21-28 of the testing period)
Bacteria growth rating Result [2, 8]: Fail (growth rating score caused by bacteria of 2 or more at days 21-28 of the testing period)
Bacteria growth rating Result [2, 9]: Pass (growth rating score caused by bacteria of 1 or less at days 21-28 of the testing period)
Bacteria growth rating Result ([2]; micellar water, pH 6.0, bacteria inoculation ~10^7 cfu/ml, Example 1B, dosed 0.3 wt %): Pass (growth rating score caused by bacteria of 1 or less at days 21-28 of the testing period)
Bacteria growth rating Result ([2]; micellar water, pH 6.0, bacteria inoculation ~10^8 cfu/ml, Example 1C, dosed 0.3 wt %): Fail (growth rating score caused by bacteria of 2 or more at days 21-28 of the testing period)
Overall Result [3, 10]: Fail
Overall Result [3, 11]: Fail
Overall Result [3, 7]: Fail
Overall Result [3, 8]: Fail
Overall Result [3, 9]: Pass
Overall Result [3, 12]: Fail
Overall Result [3, 13]: Fail
Bacteria growth rating Result ([4]; liquid laundry detergent, pH 7.5, simplified bacteria pool, Example 1G, dosed 0.5 wt %): Pass (growth rating score caused by bacteria of 1 or less at days 21-28 of the testing period)
Bacteria growth rating Result ([4]; liquid laundry detergent, pH 7.5, simplified bacteria pool, Example 1G, dosed 1.0 wt %): Pass (growth rating score caused by bacteria of 1 or less at days 21-28 of the testing period)
Bacteria growth rating Result ([4]; manual dishwashing formulation, pH 5.5, simplified bacteria pool, Example 1F, dosed 0.5 wt %): Fail (growth rating score caused by bacteria of 2 or more at days 21-28 of the testing period)
Bacteria growth rating Result ([4]; manual dishwashing formulation, pH 5.5, simplified bacteria pool, Example 1F, dosed 1.0 wt %): Fail (growth rating score caused by bacteria of 2 or more at days 21-28 of the testing period)
Overall Result [5, 14]: Fail
Overall Result [5, 15]: Fail
Overall Result [5, 16]: Fail
Overall Result [5, 17]: Fail
Fungi growth rating Result [6, 14]: Fail (growth rating score caused by fungi of more than 2 at days 21-28 of the testing period)
Fungi growth rating Result [6, 15]: Fail (growth rating score caused by fungi of more than 2 at days 21-28 of the testing period)
Fungi growth rating Result [6, 10]: Fail (growth rating score caused by fungi of more than 2 at days 21-28 of the testing period)
Fungi growth rating Result [6, 11]: Fail (growth rating score caused by fungi of more than 2 at days 21-28 of the testing period)
Fungi growth rating Result [6, 7]: Fail (growth rating score caused by fungi of more than 2 at days 21-28 of the testing period)
Fungi growth rating Result [6, 8]: Fail (growth rating score caused by fungi of more than 2 at days 21-28 of the testing period)
Fungi growth rating Result [6, 9]: Pass (growth rating score caused by fungi of 2 or less at days 21-28 of the testing period)
Fungi growth rating Result ([6]; lotion, pH 6.5, Example 4, dosed 0.8 wt %): Pass (growth rating score caused by fungi of 2 or less at days 21-28 of the testing period)
Fungi growth rating Result ([6]; manual dishwash formulation, pH 6.5, Example 4, dosed 0.8 wt %): Fail (growth rating score caused by fungi of more than 2 at days 21-28 of the testing period)
Fungi growth rating Result [6, 16]: Fail (growth rating score caused by fungi of more than 2 at days 21-28 of the testing period)
Fungi growth rating Result [6, 17]: Fail (growth rating score caused by fungi of more than 2 at days 21-28 of the testing period)
Fungi growth rating Result [6, 12]: Fail (growth rating score caused by fungi of more than 2 at days 21-28 of the testing period)
Fungi growth rating Result [6, 13]: Fail (growth rating score caused by fungi of more than 2 at days 21-28 of the testing period)
